Laboratory results taken from patent US8796304B2, “Tricyclic imidazole compounds as PDE10 inhibitors” (H. Lundbeck A/S, priority 2010, dated 2014).

What was measured:
PDE10A enzyme = PDE10A enzyme (Homo sapiens (Human), UniProt Q9Y233); experiment: PDE10A inhibition assay (3H-cAMP, SPA beads); assay type: biochemical; conditions: 10 nM 3H-cAMP, 1 hour incubation; read-out: PDE10 IC50
Description: PDE10A can be expressed as full-length proteins or as truncated proteins, as long as they express the catalytic domain, PDE10A can be prepared in different cell types, for example insect cells or E. coli. […] Expression in coil is performed according to standard protocols. Briefly, the expression plasmids are transformed into the BL21(DE3) E. coli strain, and 50 mL cultures inoculated with the cells allowed to grow to an OD600 of 0.4-0.6 before protein expression is induced with 0.5 mM IPTG. Following induction, the cells are incubated overnight at room temperature, after which the cells are collected by centrifugation. Cells expressing PDE10A are resuspended in 12 mL (50 mM TRIS-HCl-pH8.0, 1 mM MgCl2 and protease inhibitors). The cells are lysed by sonication, and after all cells are lysed, TritonX100 is added according to Novagen protocols.
Reactions are initiated by addition of the cyclic nucleotide substrate, and reactions are allowed to proceed for one hr at room temperature before being terminated through mixing with 15 uL […] yttrium silicate SPA beads (Amersham).
Following a 1 hour incubation the reactions were terminated by addition of 15 uL 8 mg/mL yttrium silicate SPA beads (Amersham). […] were calculated by non linear regression using XLfit (IDBS).

[1] = tested on: PCP induced hyperactivity in mice; experiment: Phencyclidine (PCP) induced hyperactivity; assay type: in vivo, mice (NMRI); conditions: Mus musculus
Description: Male mice (NMRI, Charles River) weighing 20-25 g are used. Eight mice are used in each group receiving the test compound (5 mg/kg) plus PCP (2.3 mg/kg) including the parallel control groups receiving the vehicle of the test compound plus PCP or vehicle injections only. The injection volume is 10 ml/kg. The experiment is made in normal light conditions in an undisturbed room. The test substance is injected per oss 60 min before injection of PCP, which is administered subcutaneous.
Immediately after injection of PCP the mice are placed individually in special designed test cage (20 cm×32 cm). The activity is measured by 5×8 infrared light sources and photocells spaced by 4 cm. The light beams cross the cage 1.8 cm above the bottom of the cage. […]
Motility is recorded in 5 min intervals for a period of 1 hour. The drug effect is calculated on the total counts during the 1 hour behavioral test period in the following manner:
The mean motility induced by vehicle treatment in the absence of PCP is used as baseline. The 100 percent effect of PCP is accordingly calculated to be total motility counts minus baseline. The response in groups receiving test compound is thus determined by the total motility counts minus baseline, expressed in percent of the similar result recorded in the parallel PCP control group. […]

[2] = tested on: hyperactivity in rats induced by PCP; conditions: cited from earlier work
[3] = tested on: amphetamine induced hyperactivity; conditions: rats; cited from earlier work
catalepsy in rats = conditions: cited from earlier work

Chain of PDE10A enzyme (Q9Y233 716-1055): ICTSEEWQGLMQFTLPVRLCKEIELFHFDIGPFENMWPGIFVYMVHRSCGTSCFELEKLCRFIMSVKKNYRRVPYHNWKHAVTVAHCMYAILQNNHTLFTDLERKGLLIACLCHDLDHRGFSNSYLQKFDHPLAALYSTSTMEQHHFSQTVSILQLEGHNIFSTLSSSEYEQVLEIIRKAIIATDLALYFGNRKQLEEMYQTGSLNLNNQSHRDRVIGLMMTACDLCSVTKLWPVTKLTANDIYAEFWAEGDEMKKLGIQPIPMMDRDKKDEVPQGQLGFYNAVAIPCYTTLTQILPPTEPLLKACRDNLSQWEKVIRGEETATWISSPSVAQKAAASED

## Cc1ncc(C)n2nc(CCc3cn4c(n3)-c3cccc(F)c3C4)nc12 [2-[2-(5,8-Dimethyl-[1,2,4]triazolo[1,5-a]pyrazin-2-yl)-ethyl]-6-fluoro-5H-imidazo[2,1-a]isoindole]
PDE10A enzyme
  IC50: 1.2 nM

## COc1ccc2c(c1)Cn1cc(CCc3nc4c(C)ncc(C)n4n3)nc1-2 [2-[2-(5,8-Dimethyl-[1,2,4]triazolo[1,5-a]pyrazin-2-yl)-ethyl]-7-methoxy-5H-imidazo[2,1-a]isoindole]
PDE10A enzyme
  IC50: 0.29 nM

## Cc1ncc(C)n2nc(C=Cc3cn4c(n3)-c3ccccc3C4)nc12 (racemic) [2-[-2-(5,8-Dimethyl-[1,2,4]triazolo[1,5-a]pyrazin-2-yl)-vinyl]-5H-imidazo[2,1-a]isoindole]
PDE10A enzyme
  IC50: 4.4 nM

## Cc1ccc(C)n2nc(CCc3cn4c(n3)-c3ccccc3C4)nc12 [2-[2-(5,8-Dimethyl-[1,2,4]triazolo[1,5-a]pyridin-2-yl)-ethyl]-5H-imidazo[2,1-a]isoindole]
PDE10A enzyme
  IC50: 0.69 nM

## [2H]C([2H])([2H])c1ncc(C([2H])([2H])[2H])n2nc(CCc3cn4c(n3)-c3ccccc3C4([2H])[2H])nc12 [2-[2-(5,8-Bis(trideuteromethyl-[1,2,4]triazolo[1,5-a]pyrazin-2-yl)-ethyl]-5,5-dideutero-5H-imidazo[2,1-a]isoindole]
PDE10A enzyme
  IC50: 0.4 nM

## Cc1ncc(C)n2nc(CCc3cn4c(n3)-c3c(F)cccc3C4)nc12 [2-[2-(5,8-Dimethyl-[1,2,4]triazolo[1,5-a]pyrazin-2-yl)-ethyl]-9-fluoro-5H-imidazo[2,1-a]isoindole]
PDE10A enzyme
  IC50: 0.79 nM

## Cc1c[n+]([O-])c(C)c2nc(CCc3cn4c(n3)-c3ccccc3C4)nn12 [2-[-2-(5,8-Dimethyl-7-oxy-[1,2,4]triazolo[1,5-a]pyrazin-2-yl)-ethyl]-5H-imidazo[2,1-a]isoindole]
PDE10A enzyme
  IC50: 2.4 nM

## COc1cccc2c1Cn1cc(CCc3nc4c(C)ncc(C)n4n3)nc1-2 [2-[2-(5,8-Dimethyl-[1,2,4]triazolo[1,5-a]pyrazin-2-yl)-ethyl]-6-methoxy-5H-imidazo[2,1-a]isoindole]
PDE10A enzyme
  IC50: 0.44 nM

## Cc1cccc2nc(CCc3cn4c(n3)-c3ccccc3C4)nn12 [2-[2-(5-Methyl-[1,2,4]triazolo[1,5-a]pyridin-2-yl)-ethyl]-5H-imidazo[2,1-a]isoindole]
PDE10A enzyme
  IC50: 6.1 nM

## Cc1ncc(C)n2nc(CCc3cn4c(n3)-c3ccccc3C4)nc12 [2-[-2-(5,8-Dimethyl-[1,2,4]triazolo[1,5-a]pyrazin-2-yl)-ethyl]-5H-imidazo[2,1-a]isoindole]
PDE10A enzyme
  IC50: 0.4 nM
[1]; at 5 mg/kg per os, PCP 2.3 mg/kg s.c.
  inhibition at 5 mg/kg: 100%
[1]; per os 60 min before PCP 2.3 mg/kg s.c., read-out: ED50, inhibition of PCP induced hyperactivity
  ED50: 0.2 mg/kg

## Cc1ncc(C)n2nc(CCc3cn4c(n3)-c3ncccc3C4)nc12 [2-[2-(5,8-Dimethyl-[1,2,4]triazolo[1,5-a]pyrazin-2-yl)-ethyl]-5H-imidazo[1′,2′:1,2]pyrrolo[3,4-b]pyridine]
PDE10A enzyme
  IC50: 46 nM

## COc1ccc2c(c1)-c1nc(CCc3nc4c(C)ncc(C)n4n3)cn1C2 [2-[2-(5,8-Dimethyl-[1,2,4]triazolo[1,5-a]pyrazin-2-yl)-ethyl]-8-methoxy-5H-imidazo[2,1-a]isoindole]
PDE10A enzyme
  IC50: 6.9 nM

## Cc1ncc(C)n2nc(CCc3cn4c(n3)-c3cccnc3C4)nc12 [2-[2-(5,8-Dimethyl-[1,2,4]triazolo[1,5-a]pyrazin-2-yl)-ethyl]-5H-imidazo[1′,2′:1,5]pyrrolo[3,4-b]pyridine]
PDE10A enzyme
  IC50: 3.8 nM

## COc1ccc(Cc2nccc3cc(OC)c(OC)cc23)cc1OC [Papaverine, papaverine]
[2]
  Hyperactivity induced by PCP: reduced hyperactivity
[3]
  Reduction of amphetamine induced hyperactivity: insignificant
Catalepsy in rats; alone
  Catalepsy on its own: did not cause catalepsy on its own
Catalepsy in rats; together with haloperidol
  Effect on the cataleptic effect of the D2 receptor antagonist haloperidol: potentiated the cataleptic effect

## Cc1ncc(C)n2nc(CCc3cn4c(n3)-c3cc(F)ccc3C4)nc12 [2-[-2-(5,8-Dimethyl-[1,2,4]triazolo[1,5-a]pyrazin-2-yl)-ethyl]-8-fluoro-5H-imidazo[2,1-a]isoindole]
PDE10A enzyme
  IC50: 3.1 nM

## Cc1ncc(C)n2nc(CCc3cn4c(n3)-c3ccc(F)cc3C4)nc12 [2-[-2-(5,8-Dimethyl-[1,2,4]triazolo[1,5-a]pyrazin-2-yl)-ethyl]-7-fluoro-5H-imidazo[2,1-a]isoindole]
PDE10A enzyme
  IC50: 0.18 nM

## Cc1cnc(CO)c2nc(CCc3cn4c(n3)-c3ccccc3C4)nn12 [{2-[2-(5H-Imidazo[2,1-a]isoindol-2-yl)-ethyl]-5-methyl-[1,2,4]triazolo[1,5-a]pyrazin-8-yl}-methanol]
PDE10A enzyme
  IC50: 6.9 nM

## COc1cccc2c1-c1nc(CCc3nc4c(C)ncc(C)n4n3)cn1C2 [2-[2-(5,8-Dimethyl-[1,2,4]triazolo[1,5-a]pyrazin-2-yl)-ethyl]-9-methoxy-5H-imidazo[2,1-a]isoindole]
PDE10A enzyme
  IC50: 0.44 nM

## Cc1cc(C)n2nc(SCc3cn4c(n3)-c3ccccc3C4)nc2n1 [2-[(5,7-dimethyl-[1,2,4]triazolo[1,5-a]pyrimidin-2-yl)sulfanylmethyl]-5H-imidazo[2,1-a]isoindole]
PDE10A enzyme
  IC50: 260 nM

## Cc1ncc(C)n2nc(CCc3cn4c(n3)-c3ccccc3CC4)nc12 [2-[2-(5,8-Dimethyl-[1,2,4]triazolo[1,5-a]pyrazin-2-yl)-ethyl]-5,6-dihydro-imidazo[2,1-a]isoquinoline]
PDE10A enzyme
  IC50: 0.81 nM

## Cc1ncc(C)n2nc(CCc3cn4c(n3)-c3ccccc3C4C(C)(C)O)nc12 (centres unmarked) [2-{2-[2-(5,8-Dimethyl-[1,2,4]triazolo[1,5-a]pyrazin-2-yl)-ethyl]-5H-imidazo[2,1-a]isoindol-5-yl}-propan-2-ol]
PDE10A enzyme
  IC50: 21 nM
